In patent publication US8933113B2 (Merck Sharp & Dohme Corp., priority 2011, dated 2015) one finds IC50 data, which are given here for 31 molecules.

Bounds are passed on as bounds.

The target of this assay is T1, full-length human Mineralocorticoid Receptor (MR) (Homo sapiens, UniProt P08235).
T1 construct: host or cells: PathHunter CHO-K1 cells
T1 sequence (P08235 1-984): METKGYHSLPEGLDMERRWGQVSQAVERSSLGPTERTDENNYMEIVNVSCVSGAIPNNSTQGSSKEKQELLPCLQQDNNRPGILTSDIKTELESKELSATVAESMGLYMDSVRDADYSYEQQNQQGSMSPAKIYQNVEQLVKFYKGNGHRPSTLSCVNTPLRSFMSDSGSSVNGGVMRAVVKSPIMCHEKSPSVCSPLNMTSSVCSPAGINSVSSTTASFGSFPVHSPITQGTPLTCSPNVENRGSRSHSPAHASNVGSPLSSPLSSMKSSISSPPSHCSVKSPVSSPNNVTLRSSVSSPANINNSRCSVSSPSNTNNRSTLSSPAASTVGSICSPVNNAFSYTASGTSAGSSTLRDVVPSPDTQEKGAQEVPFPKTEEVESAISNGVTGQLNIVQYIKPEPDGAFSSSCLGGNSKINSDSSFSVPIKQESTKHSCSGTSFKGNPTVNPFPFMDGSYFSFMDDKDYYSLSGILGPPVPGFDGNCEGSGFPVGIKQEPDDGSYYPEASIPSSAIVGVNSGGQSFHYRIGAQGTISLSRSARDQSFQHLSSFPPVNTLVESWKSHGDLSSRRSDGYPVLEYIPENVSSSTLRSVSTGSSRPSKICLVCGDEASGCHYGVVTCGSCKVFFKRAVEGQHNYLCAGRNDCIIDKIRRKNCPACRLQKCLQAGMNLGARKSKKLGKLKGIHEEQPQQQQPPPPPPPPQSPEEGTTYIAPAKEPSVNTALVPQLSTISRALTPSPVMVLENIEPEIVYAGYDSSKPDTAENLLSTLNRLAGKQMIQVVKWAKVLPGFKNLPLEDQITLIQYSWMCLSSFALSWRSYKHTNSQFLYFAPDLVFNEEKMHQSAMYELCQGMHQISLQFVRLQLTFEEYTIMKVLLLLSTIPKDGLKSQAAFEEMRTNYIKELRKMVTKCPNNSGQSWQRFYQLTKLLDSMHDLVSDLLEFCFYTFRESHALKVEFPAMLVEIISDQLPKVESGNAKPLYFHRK
Nature of the assay: human MR NH Pro assay (PathHunter Protein:Protein interaction assay), MR antagonist activity. To be noted: PathHunter CHO-K1 cells overexpressing human MR; aldosterone about 0.3 nM; 6 hours at 37° C.; luminescence; read-out: Primary Assay IP rating (IP = inflection point for a given dose-response titration curve). The assay is classed as cell-based. An outline of the steps: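 PathHunter enzyme-complementation assay in cells of full-length human MR recruitment of a coactivator peptide, run in antagonist mode against aldosterone at about 0.3 to 1.0 nM final. Compounds are in a 10-point, 1:3 series from a 4.4 mM top. Incubation is 6 h at 37° C, then detection reagent for 1 h at RT, with a luminescence read-out.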
On to `CC[C@](C(=O)NC1CC1)(c1ccc(Cl)cc1)n1ccc2c(NS(C)(=O)=O)cccc21` [Compound 41, (R)-2-(4-chlorophenyl)-N-cyclopropyl-2-{4-[(methylsulfonyl)amino]-1H-indol-1-yl}butanamide], for which the IC50 is 100 to 500 nM.
For `COC(=O)C(c1ccc(Br)cc1)n1ccc2c(NS(C)(=O)=O)cccc21` (stereo not shown) [Compound 24, methyl (4-bromophenyl){4-[(methylsulfonyl)amino]-1H-indol-1-yl}acetate] the value was 500 to 5000 nM; for `CCC(c1ccc(Cl)cc1)(C(C)O)n1ncc2c(NS(C)(=O)=O)cccc21` (single isomer, unassigned) [Compound 107], below 100 nM.
For `CCC(C(C)=O)(c1ccc(Cl)cc1)n1ncc2c(NS(=O)(=O)NC)cccc21` (stereo not shown) [Compound 105] the value was below 100 nM; for `CS(=O)(=O)Nc1cccc2c1ccn2C(CC#N)(C(=O)NCc1ccccc1)c1ccc(Cl)cc1` (stereo not shown) [Compound 54, N-benzyl-2-(4-chlorophenyl)-3-cyano-2-{4-[(methylsulfonyl)amino]-1H-indol-1-yl}propanamide], 100 to 500 nM; for `CS(=O)(=O)Nc1cccc2c1ccn2C1(c2ccc(Cl)cc2)CCNC1=O` (stereo not shown) [Compound 84, N-{1-[3-(4-chlorophenyl)-2-oxopyrrolidin-3-yl]-1H-indol-4-yl}methanesulfonamide], 100 to 500 nM.
In the case of `CCC(c1ccc(Cl)cc1)(C(C)O)n1ncc2c(NS(=O)(=O)NC)cccc21` (stereo not shown) [Compound 118] it was below 100 nM; in that of `COC(=O)C(c1cccc(Br)c1)n1ccc2c([N+](=O)[O-])cccc21` (stereo not shown) [Compound 4, methyl (3-bromophenyl)(4-nitro-1H-indol-1-yl)acetate], 500 to 5000 nM; in that of `CCC(CCC#N)(c1ccc(Cl)cc1)n1ccc2c(NS(C)(=O)=O)cccc21` (single isomer, unassigned) [Compound 140, N-(1-(3-(4-chlorophenyl)-1-cyanopentan-3-yl)-1H-indol-4-yl)methanesulfonamide], below 100 nM.
Regarding `COC(=O)C(c1cccc(-c2cccc(OC)c2)c1)n1ccc2c(NS(C)(=O)=O)cccc21` (stereo not shown) [Compound 78], the IC50 was in the range of 500 to 5000 nM.
Regarding `COC(=O)C(c1ccc(OC)cc1)n1ccc2c([N+](=O)[O-])cccc21` (stereo not shown) [Compound 5, methyl (4-methoxyphenyl)(4-nitro-1H-indol-1-yl)acetate], the IC50 lay in the range of 500 to 5000 nM.
In the case of `CCC(CCC#N)(c1ccc(Cl)cc1)n1ncc2c(NS(C)(=O)=O)cccc21` (single isomer, unassigned) [Compound 138, N-(1-(3-(4-chlorophenyl)-1-cyanopentan-3-yl)-1H-indazol-4-yl)methanesulfonamide] it was below 100 nM; in that of `CCC(c1ccc(Cl)cc1)(c1nnc(-c2ccc(F)cc2)o1)n1ccc2c(NS(C)(=O)=O)cccc21` (stereo not shown) [Compound 72, N-(1-{1-(4-chlorophenyl)-1-[5-(4-fluorophenyl)-1,3,4-oxadiazol-2-yl]propyl}-1H-indol-4-yl)methanesulfonamide], 100 to 500 nM.
With `CCC(C(=O)OC)(c1ccc(Cl)cc1Cl)n1ccc2c(NS(C)(=O)=O)cccc21` (stereo not shown) [Compound 30, Methyl 2-(2,4-dichlorophenyl)-2-{4-[(methylsulfonyl)amino]-1H-indol-1-yl}butanoate], the IC50 lay within 100 to 500 nM.
In the case of `CCC(CC#N)(c1ccc(Cl)cc1)n1ncc2c(NS(C)(=O)=O)cccc21` (single isomer, unassigned) [Compound 123, N-(1-(2-(4-chlorophenyl)-1-cyanobutan-2-yl)-1H-indazol-4-yl)methanesulfonamide] it was below 100 nM; in that of `CS(=O)(=O)Nc1cccc2c1ccn2C(CC#N)(c1ccc(Cl)cc1)c1nnc(-c2ccccc2)o1` (stereo not shown) [Compound 76, N-{1-[1-(4-chlorophenyl)-2-cyano-1-(5-phenyl-1,3,4-oxadiazol-2-yl)ethyl]-1H-indol-4-yl}methanesulfonamide], 100 to 500 nM; in that of `CCC(CCO)(c1ccc(Cl)cc1)n1ccc2c(NS(C)(=O)=O)cccc21` (single isomer, unassigned) [Compound 160, N-(1-(3-(4-Chlorophenyl)-1-hydroxypentan-3-yl)-1H-indol-4-yl)methanesulfonamide], below 100 nM.
For the molecule `COC(=O)C(c1ccc(Cl)cc1)n1ccc2c([N+](=O)[O-])cccc21` (stereo not shown) [Compound 1, methyl (4-chlorophenyl)(4-nitro-1H-indol-1-yl)acetate], the IC50 fell in the range of 500 to 5000 nM.
In the case of `CCC(C(C)=O)(c1ccc(Cl)cc1)n1ncc2c(NS(C)(=O)=O)cccc21` (single isomer, unassigned) [Compound 100, N-(1-(3-(4-chlorophenyl)-2-oxopentan-3-yl)-1H-indazol-4-yl)methanesulfonamide] it was below 100 nM.
In the case of `CCC(CCC(F)(F)F)(c1ccc(Cl)cc1)n1ccc2c(NS(C)(=O)=O)cccc21` (single isomer, unassigned) [Compound 180, N-(1-(3-(4-chlorophenyl)-6,6,6-trifluorohexan-3-yl)-1H-indol-4-yl)methane sulfonamide] it was below 100 nM; in that of `CS(=O)(=O)Nc1cccc2c1ccn2C(c1ccc(Cl)cc1)c1nc(-c2ccccc2)no1` (stereo not shown) [Compound 63, N-{1-[(4-chlorophenyl)(3-phenyl-1,2,4-oxadiazol-5-yl)methyl]-1H-indol-4-yl}methanesulfonamide], 500 to 5000 nM; in that of `CCNC(=O)C(CC)(c1ccc(Cl)cc1)n1ccc2c(NS(C)(=O)=O)cccc21` (stereo not shown) [Compound 46, 2-(4-chlorophenyl)-N-ethyl-2-{4-[(methylsulfonyl)amino]-1H-indol-1-yl}butanamide], 100 to 500 nM.
For `CCC(c1ccc(Cl)cc1)(c1noc(-c2ccc(F)cc2)n1)n1ccc2c(NS(C)(=O)=O)cccc21` (stereo not shown) [Compound 59, N-(1-{1-(4-chlorophenyl)-1-[5-(4-fluorophenyl)-1,2,4-oxadiazol-3-yl]propyl}-1H-indol-4-yl)methanesulfonamide] the value was below 100 nM; for `CCn1nnc(C(CC)(c2ccc(Cl)cc2)n2ccc3c(NS(C)(=O)=O)cccc32)n1` (single isomer, unassigned) [Compound 179, N-(1-(1-(4-chlorophenyl)-1-(2-ethyl-2H-tetrazol-5-yl)propyl)-1H-indol-4-yl)methane sulfonamide], below 100 nM.
For `CCC(CN)(c1ccc(Cl)cc1)n1ccc2c(NS(C)(=O)=O)cccc21` (stereo not shown) [Compound 177, N-(1-(1-amino-2-(4-chlorophenyl)butan-2-yl)-1H-indol-4-yl)methanesulfonamide], the IC50 lay in the range of 100 to 500 nM.
In the case of `CCC(CCC#N)(c1ccc(C(F)(F)F)cc1)n1ncc2c(NS(C)(=O)=O)cccc21` (single isomer, unassigned) [Compound 141, N-(1-(1-cyano-3-(4-(trifluoromethyl)phenyl)pentan-3-yl)-1H-indazol-4-yl)methanesulfonamide] it was below 100 nM; in that of `CCC(c1ccc(Cl)cc1)(c1nc(C(N)=O)no1)n1ncc2c(NS(C)(=O)=O)cccc21` (stereo not shown) [Compound 157, 5-(1-(4-chlorophenyl)-1-(4-(methylsulfonamido)-1H-indazol-1-yl)propyl)-1,2,4-oxadiazole-3-carboxamide], 100 to 500 nM; in that of `COC(=O)C(c1ccc(Cl)cc1)n1ncc2c(NS(C)(=O)=O)cccc21` (stereo not shown) [Compound 19, methyl (4-chlorophenyl){4-[(methylsulfonyl)amino]-1H-indazol-1-yl}acetate], 500 to 5000 nM.
In the case of `CCC(/C=C/C(=O)OC)(c1ccc(Cl)cc1)n1ncc2c(NS(C)(=O)=O)cccc21` (stereo not shown) [Compound 171, (E)-methyl 4-(4-chlorophenyl)-4-(4-(methylsulfonamido)-1H-indazol-1-yl)hex-2-enoate] it was 100 to 500 nM; in that of `CCC(CC#N)(c1ccc(Cl)cc1)n1ccc2c(NS(C)(=O)=O)cccc21` (single isomer, unassigned) [Compound 122, N-(1-(2-(4-chlorophenyl)-1-cyanobutan-2-yl)-1H-indol-4-yl)methanesulfonamide], below 100 nM; in that of `CC(C)(C)OC(=O)C(c1ccc(Cl)cc1)n1ccc2c(NS(C)(=O)=O)cccc21` (stereo not shown) [Compound 18, tert-butyl (4-chlorophenyl){4-[(methylsulfonyl)amino]-1H-indol-1-yl}acetate], 500 to 5000 nM.
